From patent US12448389B2, “BRM targeting compounds and associated methods of use” (Prelude Therapeutics Incorporated, priority 2020, dated 2025) come the findings set out here.

Bounds are passed on as bounds.

The term DC50 denotes the concentration giving 50% degradation. In general, Dmax refers to the greatest extent of degradation seen.

For one assay, the target named is T1, SMARCA2-HiBiT (Homo sapiens, UniProt P51531).
T1 construct: SMARCA2-HiBiT knock-in Hela monoclonal cell (CS302366); host or cells: HeLa monoclonal knock-in line (CRISPR HiBiT knock-in at the endogenous locus, heterozygous)
T1 sequence (P51531 whole entry): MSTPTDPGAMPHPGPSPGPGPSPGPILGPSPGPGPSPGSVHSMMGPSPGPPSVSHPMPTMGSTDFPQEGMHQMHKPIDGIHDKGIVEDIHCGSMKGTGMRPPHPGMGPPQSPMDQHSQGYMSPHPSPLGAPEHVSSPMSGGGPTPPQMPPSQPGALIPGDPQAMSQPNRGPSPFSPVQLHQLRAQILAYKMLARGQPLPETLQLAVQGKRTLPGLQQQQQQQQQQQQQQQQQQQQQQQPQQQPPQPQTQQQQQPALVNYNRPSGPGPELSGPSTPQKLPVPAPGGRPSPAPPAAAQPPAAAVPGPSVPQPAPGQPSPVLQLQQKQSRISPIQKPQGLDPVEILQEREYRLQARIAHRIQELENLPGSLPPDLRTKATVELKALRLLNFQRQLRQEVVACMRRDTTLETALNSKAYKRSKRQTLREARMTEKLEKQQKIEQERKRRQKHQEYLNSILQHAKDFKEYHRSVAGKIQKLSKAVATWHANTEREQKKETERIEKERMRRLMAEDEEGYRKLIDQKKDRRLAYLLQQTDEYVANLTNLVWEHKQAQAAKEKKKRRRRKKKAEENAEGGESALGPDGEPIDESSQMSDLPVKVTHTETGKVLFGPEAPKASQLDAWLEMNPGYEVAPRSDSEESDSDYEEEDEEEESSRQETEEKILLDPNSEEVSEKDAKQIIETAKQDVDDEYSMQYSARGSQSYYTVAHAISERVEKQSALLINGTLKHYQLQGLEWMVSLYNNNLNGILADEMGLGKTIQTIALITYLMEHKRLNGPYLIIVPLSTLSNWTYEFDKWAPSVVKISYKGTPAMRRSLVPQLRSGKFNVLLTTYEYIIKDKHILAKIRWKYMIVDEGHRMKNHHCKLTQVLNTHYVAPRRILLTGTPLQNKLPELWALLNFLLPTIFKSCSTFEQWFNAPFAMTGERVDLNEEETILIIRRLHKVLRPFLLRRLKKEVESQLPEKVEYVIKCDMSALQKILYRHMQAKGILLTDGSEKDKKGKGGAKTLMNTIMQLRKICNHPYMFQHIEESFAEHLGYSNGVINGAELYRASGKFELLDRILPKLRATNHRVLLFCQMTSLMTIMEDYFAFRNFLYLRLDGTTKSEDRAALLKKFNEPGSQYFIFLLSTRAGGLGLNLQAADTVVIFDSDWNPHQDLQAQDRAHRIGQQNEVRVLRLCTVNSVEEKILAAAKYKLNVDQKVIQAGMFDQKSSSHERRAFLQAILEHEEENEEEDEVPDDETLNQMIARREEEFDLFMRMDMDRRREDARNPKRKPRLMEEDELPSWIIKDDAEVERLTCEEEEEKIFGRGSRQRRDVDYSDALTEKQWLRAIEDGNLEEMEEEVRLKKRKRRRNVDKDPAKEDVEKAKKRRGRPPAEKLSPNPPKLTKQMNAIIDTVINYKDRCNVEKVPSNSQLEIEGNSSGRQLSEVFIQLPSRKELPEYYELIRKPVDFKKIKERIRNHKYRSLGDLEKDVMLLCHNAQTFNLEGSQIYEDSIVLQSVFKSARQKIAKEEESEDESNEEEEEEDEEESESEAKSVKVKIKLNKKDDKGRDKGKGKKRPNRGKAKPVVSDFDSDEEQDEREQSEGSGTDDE
Description: SMARCA2 HiBiT degradation assay in HeLa cells. The assay is classed as cell-based. The conditions noted are these: 18 hours incubation; for DC50: read-out: HeLa_HiBit-SM2 DC50; for Dmax: HeLa, read-out: HeLa-HiBit-SM2 Dmax (%). The essentials: (§1)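 HeLa monoclonal lines with heterozygous HiBiT knock-in were seeded at 2500 cells/well in EMEM with 10% FBS and treated with compound for 18 h at 37 °C. Remaining tagged protein was measured by Nano-Glo HiBiT lytic luminescence after 30–60 min at RT, and values came from curve fitting.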
A general note: The HiBiT peptide binds its large partner to form an active luciferase.

A further assay has as its target T2, SMARCA4-HiBiT (Homo sapiens, UniProt P51532).
T2 construct: SMARCA4-HiBiT knock-in Hela monoclonal cell (CS3023226); host or cells: HeLa monoclonal knock-in line (CRISPR HiBiT knock-in at the endogenous locus, heterozygous)
The experiment in a line: SMARCA4 HiBiT degradation assay in HeLa cells. The assay is classed as cell-based. The conditions noted are these: 18 hours incubation; for DC50: read-out: HeLa-HiBit-SM4 DC50; for Dmax: HeLa, read-out: HeLa-HiBit-SM4 Dmax (%). An outline of the steps: as §1

T2 sequence (P51532 whole entry): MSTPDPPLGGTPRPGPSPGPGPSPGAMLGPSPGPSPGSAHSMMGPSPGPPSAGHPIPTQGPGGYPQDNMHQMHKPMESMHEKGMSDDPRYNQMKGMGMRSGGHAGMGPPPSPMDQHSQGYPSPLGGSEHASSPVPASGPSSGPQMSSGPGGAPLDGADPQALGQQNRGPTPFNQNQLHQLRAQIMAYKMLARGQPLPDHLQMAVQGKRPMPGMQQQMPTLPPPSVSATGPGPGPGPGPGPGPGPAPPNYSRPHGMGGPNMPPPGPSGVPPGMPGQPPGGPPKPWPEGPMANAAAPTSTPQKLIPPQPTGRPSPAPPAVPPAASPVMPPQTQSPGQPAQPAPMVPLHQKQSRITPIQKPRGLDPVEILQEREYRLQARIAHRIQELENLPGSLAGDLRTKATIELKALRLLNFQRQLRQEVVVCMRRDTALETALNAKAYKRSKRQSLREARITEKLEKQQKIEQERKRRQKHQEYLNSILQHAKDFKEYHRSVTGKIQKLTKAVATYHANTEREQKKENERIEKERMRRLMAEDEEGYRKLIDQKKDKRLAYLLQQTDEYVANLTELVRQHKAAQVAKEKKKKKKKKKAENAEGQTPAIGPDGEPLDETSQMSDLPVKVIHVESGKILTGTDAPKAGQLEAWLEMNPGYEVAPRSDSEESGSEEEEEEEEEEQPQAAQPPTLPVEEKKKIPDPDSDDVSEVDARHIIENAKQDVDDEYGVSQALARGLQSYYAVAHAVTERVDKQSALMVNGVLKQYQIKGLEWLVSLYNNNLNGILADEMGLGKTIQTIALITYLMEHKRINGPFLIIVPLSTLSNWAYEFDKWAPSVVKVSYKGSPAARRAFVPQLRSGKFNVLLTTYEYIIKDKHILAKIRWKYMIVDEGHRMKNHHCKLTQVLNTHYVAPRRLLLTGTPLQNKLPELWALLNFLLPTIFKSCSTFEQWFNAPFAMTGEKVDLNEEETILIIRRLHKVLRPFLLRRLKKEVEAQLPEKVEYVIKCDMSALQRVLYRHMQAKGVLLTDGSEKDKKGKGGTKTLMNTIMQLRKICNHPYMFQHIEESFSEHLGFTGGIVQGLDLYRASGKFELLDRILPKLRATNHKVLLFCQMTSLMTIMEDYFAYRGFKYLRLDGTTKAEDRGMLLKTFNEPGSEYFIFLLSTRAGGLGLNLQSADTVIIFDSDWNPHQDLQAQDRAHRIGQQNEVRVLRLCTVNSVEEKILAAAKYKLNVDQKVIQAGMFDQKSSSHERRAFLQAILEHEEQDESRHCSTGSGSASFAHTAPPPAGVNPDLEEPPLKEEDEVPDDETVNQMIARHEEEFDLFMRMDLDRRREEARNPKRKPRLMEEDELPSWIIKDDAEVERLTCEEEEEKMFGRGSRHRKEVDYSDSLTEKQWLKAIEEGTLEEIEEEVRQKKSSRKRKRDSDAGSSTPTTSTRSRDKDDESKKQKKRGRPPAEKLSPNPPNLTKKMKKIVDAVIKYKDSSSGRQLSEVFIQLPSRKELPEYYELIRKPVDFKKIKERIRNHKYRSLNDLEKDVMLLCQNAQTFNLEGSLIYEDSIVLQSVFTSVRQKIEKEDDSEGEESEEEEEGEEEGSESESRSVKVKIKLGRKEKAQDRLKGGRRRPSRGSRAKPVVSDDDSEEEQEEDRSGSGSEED

In the case of `CC(CN1CCC(N2CCN3c4cc(-c5ccccc5O)nnc4NC[C@H]3C2)CC1)Oc1ccc2c(c1)CN([C@@H]1CCC(=O)NC1=O)C2=O` (stereo partly drawn) [Example 214, (3R)-3-(5-((1-(4-((S)-2-(2-hydroxyphenyl)-5,6,6a,7,9,10-hexahydro-8H-pyrazino[1′,2′:4,5]pyrazino[2,3-c]pyridazin-8-yl)piperidin-1-yl)propan-2-yl)oxy)-1-oxoisoindolin-2-yl)piperidine-2,6-dione], at SMARCA2-HiBiT, the DC50 is below 10 nM and the Dmax was 75 to 85%. For the same compound, on SMARCA4-HiBiT, the DC50 is below 10 nM and the Dmax lay within 50 to 75%.
Turning to `O=C1CCC(N2C(=O)c3ccc(N4CCC(CN5C[C@H]6C[C@H](CN7CCN8c9cc(-c%10ccccc%10O)nnc9NC[C@H]8C7)C[C@H]6C5)CC4)cc3C2=O)C(=O)N1` (stereo partly drawn) [Example 45, 2-(2,6-dioxopiperidin-3-yl)-5-(4-(((3aR,5s,6aS)-5-(((S)-2-(2-hydroxyphenyl)-5,6,6a,7,9,10-hexahydro-8H-pyrazino [1′,2′:4,5]pyrazino[2,3-c]pyridazin-8-yl)methyl)hexahydrocyclopenta[c]pyrrol-2(1H)-yl)methyl)piperidin-1-yl)isoindoline-1,3-dione], the DC50 on SMARCA2-HiBiT and on SMARCA4-HiBiT was below 10 nM in each case. The Dmax on SMARCA2-HiBiT and at SMARCA4-HiBiT was above 85% throughout.
On to `O=C1CCC(N2C(=O)c3ccc(N4CCC(CN5CC6CC5CC6CN5CCN6c7cc(-c8ccccc8O)nnc7NC[C@H]6C5)CC4)cc3C2=O)C(=O)N1` (stereo partly drawn) [Example 136, 2-(2,6-dioxopiperidin-3-yl)-5-(4-((5-(((S)-2-(2-hydroxyphenyl)-5,6,6a,7,9,10-hexahydro-8H-pyrazino[1′,2′:4,5]pyrazino[2,3-c]pyridazin-8-yl)methyl)-2-azabicyclo[2.2.1]heptan-2-yl)methyl)piperidin-1-yl) isoindoline-1,3-dione], for which the DC50 on SMARCA2-HiBiT and at SMARCA4-HiBiT was below 10 nM in each case. The Dmax at SMARCA2-HiBiT and at SMARCA4-HiBiT was above 85% in each case.
As to `O=C1CCC(N2C(=O)c3ccc(N4CCC(CN5CCC6(CN7CCN8c9cc(-c%10ccccc%10O)nnc9NC[C@H]8C7)CC6C5)CC4)cc3C2=O)C(=O)N1` (stereo partly drawn) [Example 171, 2-(2,6-dioxopiperidin-3-yl)-5-[4-[[6-[[(10S)-4-(2-hydroxyphenyl)-1,5,6,8,12-pentazatricyclo[8.4.0.02,7]tetradeca-2,4,6-trien-12-yl]methyl]-3-azabicyclo[4.1.0]heptan-3-yl]methyl]piperidin-1-yl]isoindole-1,3-dione], on SMARCA2-HiBiT, the half-maximal degradation concentration (DC50) is below 10 nM and the Dmax is above 85%. Also, at SMARCA4-HiBiT, the DC50 was below 10 nM and the Dmax was above 85%.
As for `CCC1CN(CC2CCN(c3ccc4c(c3)C(=O)N(C3CCC(=O)NC3=O)C4)CC2)CCN1C(=O)N1CCN2c3cc(-c4ccccc4O)nnc3NC[C@H]2C1` (stereo partly drawn) [Example 270, 3-(6-(4-((3-ethyl-4-((S)-2-(2-hydroxyphenyl)-6,6a,7,8,9,10-hexahydro-5H-pyrazino[1′,2′:4,5]pyrazino[2,3-c]pyridazine-8-carbonyl)piperazin-1-yl)methyl)piperidin-1-yl)-1-oxoisoindolin-2-yl)piperidine-2,6-dione], at SMARCA2-HiBiT, the DC50 was below 10 nM and the Dmax was above 85%. Moreover, at SMARCA4-HiBiT, the DC50 was below 10 nM and the Dmax was above 85%.
Turning to `O=C1CCC(N2C(=O)c3cccc(N4CCN(CCCN5CCC(N6CCN7c8cc(-c9ccccc9O)nnc8NC[C@H]7C6)CC5)CC4)c3C2=O)C(=O)N1` (stereo partly drawn) [Example 69, 2-(2,6-dioxopiperidin-3-yl)-4-(4-(3-(4-((S)-2-(2-hydroxyphenyl)-5,6,6a,7,9,10-hexahydro-8H-pyrazino[1′,2′:4,5]pyrazino[2,3-c]pyridazin-8-yl)piperidin-1-yl)propyl)piperazin-1-yl)isoindoline-1,3-dione], at SMARCA2-HiBiT, the half-maximal degradation concentration (DC50) was below 10 nM and the Dmax was above 85%. Further, at SMARCA4-HiBiT, the DC50 is below 10 nM and the Dmax was above 85%.
As to `O=C1CCC(N2Cc3cc(C4CCN(C5CCN(CCCN6CCN7c8cc(-c9ccccc9O)nnc8NC[C@H]7C6)CC5)CC4)ccc3C2=O)C(=O)N1` (stereo partly drawn) [Example 209, 3-(5-(1′-(3-((S)-2-(2-hydroxyphenyl)-5,6,6a,7,9,10-hexahydro-8H-pyrazino[1′,2′:4,5]pyrazino[2,3-c]pyridazin-8-yl)propyl)-[1,4′-bipiperidin]-4-yl)-1-oxoisoindolin-2-yl)piperidine-2,6-dione], on SMARCA2-HiBiT, the DC50 was below 10 nM and the greatest degradation seen (Dmax) was above 85%. At SMARCA4-HiBiT, the DC50 is below 10 nM and the Dmax was above 85%.
`O=C1CCC(N2C(=O)c3ccc(N4CC[C@H](CN5C[C@@H]6[C@H](C5)[C@H]6CN5CCN6c7cc(-c8ccccc8O)nnc7NC[C@H]6C5)[C@@H](F)C4)cc3C2=O)C(=O)N1` (stereo partly drawn) [Example 193, 2-(2,6-dioxopiperidin-3-yl)-5-[(3R,4R)-3-fluoro-4-[[(1S,5R)-6-[[(10S)-4-(2-hydroxyphenyl)-1,5,6,8,12-pentazatricyclo[8.4.0.02,7]tetradeca-2(7),3,5-trien-12-yl]methyl]-3-azabicyclo [3.1.0]hexan-3-yl]methyl]piperidin-1-yl]isoindole-1,3-dione]: at SMARCA2-HiBiT, the DC50 was below 10 nM and the Dmax was in the range of 75 to 85%. In addition, on SMARCA4-HiBiT, the “HeLa-HiBit-SM4 Dmax (%)” value was “C (C=50%<Dmax<=75%)” and the half-maximal degradation concentration (DC50) lay in the range of 10 to 100 nM.
Take `CN(CC1CCN(CC2CCN(c3ccc4c(c3)C(=O)N(C3CCC(=O)NC3=O)C4=O)CC2)CC1)C1CCN2c3cc(-c4ccccc4O)nnc3NCC2C1` (centres unmarked) [Example 254, 2-(2,6-dioxopiperidin-3-yl)-5-(4-((4-(((2-(2-hydroxy-phenyl)-6,6a,7,8,9,10-hexahydro-5H-pyrido[1′,2′:4,5]pyrazino[2,3-c]pyridazin-8-yl)(methyl)amino)methyl)piperidin-1-yl)methyl)piperidin-1-yl)isoindoline-1,3-dione]: at SMARCA2-HiBiT, the DC50 is below 10 nM and the Dmax was 50 to 75%. Besides, on SMARCA4-HiBiT, the DC50 lay in the range of 10 to 100 nM and the Dmax was in the range of 75 to 85%.
Taken in the same sequence, the figures for `O=C1CCC(N2C(=O)c3ccc(N4CCC(CN5C[C@@H]6[C@H](C5)[C@H]6CN5CCN6c7cc(-c8ccccc8O)nnc7NC[C@H]6C5)CC4)cc3C2=O)C(=O)N1` (stereo partly drawn) [Example 42, 2-(2,6-dioxopiperidin-3-yl)-5-(4-(((1R,5S,6r)-6-(((S)-2-(2-hydroxyphenyl)-5,6,6a,7,9,10-hexahydro-8H-pyrazino[1′,2′:4,5]pyrazino[2,3-c]pyridazin-8-yl)methyl)-3-azabicyclo[3.1.0]hexan-3-yl)methyl)piperidin-1-yl)isoindoline-1,3-dione] were below 10 nM, above 85%, below 10 nM and 50 to 75%.
For the compound `O=C1CCC(N2Cc3ccc(N4CCOC(CN5CCN(C(=O)N6CCN7c8cc(-c9ccccc9O)nnc8NC[C@H]7C6)CC5)C4)cc3C2=O)C(=O)N1` (stereo partly drawn) [Example 111, 3-(6-(2-((4-((S)-2-(2-hydroxyphenyl)-6,6a,7,8,9,10-hexahydro-5H-pyrazino[1′,2′:4,5]pyrazino[2,3-c]pyridazine-8-carbonyl)piperazin-1-yl)methyl)morpholino)-1-oxoisoindolin-2-yl)piperidine-2,6-dione], the DC50 at SMARCA2-HiBiT was below 10 nM; on SMARCA4-HiBiT, 10 to 100 nM. Further, the Dmax on SMARCA2-HiBiT and on SMARCA4-HiBiT was 50 to 75% throughout.
